From ChEMBL document CHEMBL1132008, “Isoxazoline GPIIb/IIIa antagonists bearing a phosphoramidate” (Bioorg Med Chem Lett, 1999) come the findings set out here.

In experiment [1] the target is T1, Integrin alpha-IIb/beta-3 (Homo sapiens, UniProt P05106+P08514). As to the kind of experiment: Affinity for purified human platelet glycoprotein alpha IIb beta3 integrin receptor in ELISA. (In an ELISA, binding on a coated surface is turned into a signal by an enzyme label.)
Experiment [2] addresses T1, Integrin alpha-IIb/beta-3. Briefly: Inhibition of fibrinogen (Fg) interaction with GPIIb/IIIa in gel filtered platelets. It counts as functional.
Experiment [3] in a line: Inhibition of platelet aggregation in citreated human platelet rich plasma (PRP).

T1 sequence (P05106 27-788 limits assumed): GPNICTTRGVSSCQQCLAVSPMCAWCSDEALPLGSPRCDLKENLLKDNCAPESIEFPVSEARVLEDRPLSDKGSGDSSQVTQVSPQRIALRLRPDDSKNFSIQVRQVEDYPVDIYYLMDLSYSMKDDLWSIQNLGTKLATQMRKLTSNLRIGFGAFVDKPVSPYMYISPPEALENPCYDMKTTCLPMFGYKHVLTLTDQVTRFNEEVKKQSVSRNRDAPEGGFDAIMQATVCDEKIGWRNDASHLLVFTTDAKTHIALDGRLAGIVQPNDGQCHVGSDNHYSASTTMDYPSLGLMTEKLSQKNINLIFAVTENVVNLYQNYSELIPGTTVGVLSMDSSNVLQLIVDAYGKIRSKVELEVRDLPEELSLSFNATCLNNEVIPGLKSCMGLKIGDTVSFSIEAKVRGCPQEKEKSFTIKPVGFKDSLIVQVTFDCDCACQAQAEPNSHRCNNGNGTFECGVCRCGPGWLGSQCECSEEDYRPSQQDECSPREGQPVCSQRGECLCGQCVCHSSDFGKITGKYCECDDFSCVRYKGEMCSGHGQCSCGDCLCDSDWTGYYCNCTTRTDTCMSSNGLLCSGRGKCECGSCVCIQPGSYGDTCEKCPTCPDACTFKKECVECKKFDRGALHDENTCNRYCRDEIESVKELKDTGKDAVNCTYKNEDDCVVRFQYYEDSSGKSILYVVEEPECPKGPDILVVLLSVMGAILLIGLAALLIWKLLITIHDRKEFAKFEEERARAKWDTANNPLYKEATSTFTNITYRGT
T1 sequence (P08514 32-887 limits assumed): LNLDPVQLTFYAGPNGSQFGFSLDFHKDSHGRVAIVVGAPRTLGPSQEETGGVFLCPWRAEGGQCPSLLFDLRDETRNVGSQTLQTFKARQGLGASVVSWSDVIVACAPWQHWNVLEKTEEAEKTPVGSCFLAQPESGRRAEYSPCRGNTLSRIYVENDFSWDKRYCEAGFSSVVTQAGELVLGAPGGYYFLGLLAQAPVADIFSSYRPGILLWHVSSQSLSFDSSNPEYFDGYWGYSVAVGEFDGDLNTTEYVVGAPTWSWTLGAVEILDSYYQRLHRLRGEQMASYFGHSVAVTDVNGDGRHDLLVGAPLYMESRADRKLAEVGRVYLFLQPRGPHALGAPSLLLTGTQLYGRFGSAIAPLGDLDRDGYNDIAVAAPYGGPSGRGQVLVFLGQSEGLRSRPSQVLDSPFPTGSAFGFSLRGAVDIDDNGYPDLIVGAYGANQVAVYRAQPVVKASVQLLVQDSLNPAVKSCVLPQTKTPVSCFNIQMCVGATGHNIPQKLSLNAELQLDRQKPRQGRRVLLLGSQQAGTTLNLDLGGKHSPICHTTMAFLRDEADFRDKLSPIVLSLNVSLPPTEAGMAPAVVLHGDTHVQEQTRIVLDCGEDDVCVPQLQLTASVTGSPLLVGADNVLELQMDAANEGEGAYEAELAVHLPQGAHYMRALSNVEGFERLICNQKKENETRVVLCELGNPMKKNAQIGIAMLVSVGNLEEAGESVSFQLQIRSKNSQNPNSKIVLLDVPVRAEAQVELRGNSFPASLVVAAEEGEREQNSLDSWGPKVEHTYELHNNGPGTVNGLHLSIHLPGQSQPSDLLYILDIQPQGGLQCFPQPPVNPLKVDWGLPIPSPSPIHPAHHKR
T1 sequence (P08514 891-1039 limits assumed): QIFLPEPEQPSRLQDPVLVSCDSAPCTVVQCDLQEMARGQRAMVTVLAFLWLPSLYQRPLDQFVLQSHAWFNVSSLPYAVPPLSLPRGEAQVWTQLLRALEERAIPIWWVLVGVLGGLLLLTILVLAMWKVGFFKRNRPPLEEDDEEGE

A word on the IC50: it is the concentration that inhibits the measured activity by half. In the case of `CCOP(=O)(NC(CNC(=O)CC1CC(c2ccc(C(=N)N)cc2)=NO1)C(=O)O)OCC` (stereo not given), the results for the IC50 in experiment [1] and in experiment [2] were 1.7 nM and 102 nM, respectively.

On to `COP(=O)(NC(CNC(=O)CC1CC(c2ccc(C(=N)N)cc2)=NO1)C(=O)O)OC` (stereo not given), for which the IC50 in experiment [1] amounted to 0.55 nM; in experiment [2], 54 nM.

Take `CC(C)OP(=O)(NC(CNC(=O)CC1CC(c2ccc(C(=N)N)cc2)=NO1)C(=O)O)OC(C)C` (stereo not given): the results for the IC50 in experiment [1] and in experiment [2] were 0.86 nM and 73 nM, respectively.

Take `CCCCOP(=O)(NC(CNC(=O)CC1CC(c2ccc(C(=N)N)cc2)=NO1)C(=O)O)OCCCC` (stereo not given): the IC50 worked out at 1.2 nM in experiment [1] and 55 nM in experiment [2].

With `N=C(N)c1ccc(C2=NOC(CC(=O)NCC(NP(=O)(O)O)C(=O)O)C2)cc1` (stereo not given), the figures for the IC50 in experiment [1] and in experiment [2] were 2.6 nM and 229 nM, respectively.

Turning to `N=C(N)c1ccc(C2=NOC(CC(=O)NCCC(=O)O)C2)cc1` (stereo not given), the IC50 in experiment [2] is 140 nM.

With `C=CCOP(=O)(NC(CNC(=O)CC1CC(c2ccc(C(=N)N)cc2)=NO1)C(=O)O)OCC=C` (stereo not given), the IC50 in experiment [1] came out at 1.5 nM; in experiment [2], 46 nM.

On to `CCCCOC(=O)N[C@@H](CNC(=O)C[C@H]1CC(c2ccc(C(=N)N)cc2)=NO1)C(=O)O`, for which the IC50 in experiment [3] worked out at 50 nM; in experiment [2] it was 21 nM.
